We go through 26 molecules from patent publication US20230303552A1, “ARYLSULFONYL DERIVATIVES AND THEIR USE AS MUSCARINIC ACETYLCHOLINE RECEPTOR M5 INHIBITORS” (Vanderbilt University, priority 2020, published 2023).

The target in this assay is T1, human M5 receptors (hM5) (Homo sapiens, UniProt P08912).
T1 construct: expressed in transfected cells
T1 sequence (P08912 1-532): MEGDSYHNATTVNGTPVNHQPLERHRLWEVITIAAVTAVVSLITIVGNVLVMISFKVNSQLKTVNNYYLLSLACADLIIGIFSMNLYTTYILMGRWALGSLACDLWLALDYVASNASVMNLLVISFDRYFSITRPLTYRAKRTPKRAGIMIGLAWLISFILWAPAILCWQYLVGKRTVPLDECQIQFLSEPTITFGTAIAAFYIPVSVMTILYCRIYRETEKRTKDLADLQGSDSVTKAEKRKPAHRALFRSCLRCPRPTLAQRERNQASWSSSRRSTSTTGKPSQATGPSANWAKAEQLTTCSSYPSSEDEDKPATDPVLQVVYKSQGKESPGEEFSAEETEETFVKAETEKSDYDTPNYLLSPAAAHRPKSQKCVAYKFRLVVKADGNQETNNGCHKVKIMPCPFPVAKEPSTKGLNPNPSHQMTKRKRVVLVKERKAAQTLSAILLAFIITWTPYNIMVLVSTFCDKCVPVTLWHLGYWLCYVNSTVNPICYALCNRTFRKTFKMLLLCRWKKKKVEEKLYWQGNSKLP
Nature of the assay: Cell-based functional calcium mobilization assay of mAChR M5 activity (inhibition of EC80 acetylcholine response) in CHO cells. To be noted: CHO cells stably expressing hM5; for IC50: calcium flux (Fluo-4), EC80 acetylcholine addition; for EC80 MIN: minimum of EC80 acetylcholine response, normalized to maximum acetylcholine response. An outline of the steps: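 CHO cells stably expressing human M5, loaded with Fluo-4 AM in HBSS/20 mM HEPES/2.5 mM probenecid pH 7.4. Compound added 140 s before acetylcholine EC20, then EC80 added 125 s later. Calcium flux normalized to maximal acetylcholine response; IC50 from ten-point curves in the EC80 window.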
For orientation: Calcium flux is commonly read through the fluorescence of an indicator in the cells.

By IC50 is commonly meant the concentration needed to halve the response being measured. Consider `C[C@@H]1C[C@@H](C(=O)Nc2ccc3scnc3c2)CCN1S(=O)(=O)c1ccc2ncsc2c1` (racemic) [Compound 134, trans-(rac)-N-(benzo[d]thiazol-5-yl)-1-(benzo[d]thiazol-6-ylsulfonyl)-2-methylpiperidine-4-carboxamide], for which the IC50 came to 580 nM and the “EC80 MIN” value is on record as 3%.

For the molecule `O=C(Nc1ccc2scnc2c1)[C@@H]1CCN(S(=O)(=O)c2ccc3ncsc3c2)C1` [Compound 136, (R)-N-(benzo[d]thiazol-5-yl)-1-(benzo[d]thiazol-6-ylsulfonyl)pyrrolidine-3-carboxamide], the concentration for half-maximal inhibition (IC50) was determined as 290 nM and the “EC80 MIN” value was determined as 2%.

With `COc1ccc(S(=O)(=O)N2CC[C@@H](C(=O)Nc3ccc4scnc4c3)C2)c(C)c1` [Compound 153, (R)-N-(benzo[d]thiazo1-5-yl)-1-((4-methoxy-2-methylphenyl)sulfonyl)pyrr olidine-3-carboxarnide], the IC50 was found to be 1470 nM and the “EC80 MIN” value is 3%.

For the molecule `O=C(Nc1ccc2scnc2c1)C1CCN(S(=O)(=O)c2ccc3c(c2)CCCO3)CC1` [Compound 50, N-(benzo[d]thiazol-5-yl)-1-(chroman-6-ylsulfonyl)pipcridinc-4-carboxamide], the IC50 was determined as 1850 nM and the “EC80 MIN” value was found to be 4%.

Turning to `O=C(Nc1ccc2scnc2c1)[C@H]1CCN(S(=O)(=O)c2ccc3c(c2)CCO3)C[C@@H]1F` (racemic) [Compound 86, Trans-(rac)-N-(Benzo[d]thiazol-5-yl)-1-((2,3-Dihydrobenzofuran-5-yl)Sulfonyl)-3-Fluoropiperidine-4-Carboxamide], the half-inhibitory concentration (IC50) came to 177 nM and the “EC80 MIN” value was found to be 2%.

In the case of `O=C(Nc1ccc2scnc2c1)C1CCN(S(=O)(=O)c2ccc(Cl)s2)CC1` [Compound 1, N-(benzo[d]thiazol-5-yl)-1-((5-chlorothiophen-2-yl)sulfonyl)piperidine-4-carboxamide], the IC50 amounted to 2740 nM and the “EC80 MIN” value was determined as 3%.

Consider `O=C(Nc1ccc2scnc2c1)[C@H]1CCN(S(=O)(=O)c2ccc3c(c2)CCO3)C1` [Compound 55, (S)-N-(benzo[d]thiazol-5-yl)-1-((2,3-dihydrobenzofuran-5-yl)sulfonyl)pyrrolidine-3-carboxamide], for which the IC50 amounted to 361 nM and the “EC80 MIN” value was 3%.

Regarding `Cc1cc2c(cc1S(=O)(=O)N1CC[C@@H](C(=O)Nc3ccc4scnc4c3)C1)C(C)CO2` (mixture of isomers) [Compound 146, (3R)-N-(benzo[d]thiazol-5-yl)-1-((3,6-dimethyl-2,3-dihydrobenzofuran-5-yl)sulfonyl)pyrrolidinc-3-carboxamide], the half-inhibitory concentration (IC50) amounted to 74 nM and the “EC80 MIN” value was determined as 2%.

Take `Cc1cc2scnc2cc1NC(=O)C1CCN(S(=O)(=O)c2ccc3c(c2)CCO3)CC1` [Compound 101, 1-((2,3-dihydrobenzofuran-5-yl)sulfonyl)-N-(6-methylbenzo[d]thiazol-5-yl)piperidine-4-carboxamide]: the concentration for half-maximal inhibition (IC50) is over 10000 nM and the “EC80 MIN” value is reported as 49%.

As to `O=C(Nc1ccc2scnc2c1)C1CCN(S(=O)(=O)c2ccccc2Cl)CC1` [Compound 65, N-(benzo[d]thiazol-5-yl)-1-((2-chlorophenyl)sulfonyl)piper idine-4-carboxamide], the IC50 is 652 nM and the “EC80 MIN” value is 2%.

With `CC1COc2ccc(S(=O)(=O)N3C[C@H](C(=O)Nc4ccc5scnc5c4)[C@@H](C)C3)cc21` (mixture of isomers) [Compound 133, (3R,4R)-N-(benzo[d]thiazol-5-yl)-4-methyl-1-((3-methyl-2,3-dihydrobenzofuran-5-yl)sulfonyl)pyrrolidine-3-carboxamide], the concentration for half-maximal inhibition (IC50) is 156 nM and the “EC80 MIN” value is on record as 3%.

For the molecule `O=C(Nc1ccc2scnc2c1)C1CCN(S(=O)(=O)c2ccc3c(c2)CCO3)C1` (racemic) [Compound 15, (rac)-N-(benzo[d]thiazol-5-yl)-1-((2,3-dihydrobcnzofuran-5-yl)sulfonyl)pyrrolidine-3-carboxamide], the IC50 stood at 47 nM and the “EC80 MIN” value came to 2%.

As for `CC1(C)COc2ccc(S(=O)(=O)N3CCC(C(=O)Nc4ccc5scnc5c4)CC3)cc21` [Compound 126, N-(benzo[d]thiazol-5-yl)-1-((3,3-dimethyl-2,3-dihydrobenzofuran-5-yl)sulfonyl)piperidine-4-carboxamide], the IC50 is over 10000 nM and the “EC80 MIN” value came to 55%.

`C[C@@H]1CN(S(=O)(=O)c2ccc3ncsc3c2)CC[C@@H]1C(=O)Nc1ccc2scnc2c1` (racemic) [Compound 93, cis-(rac)-N-(benzo[d]thiazol-5-y1)-1-(benzo[d]thiazol-6-ylsulfonyl)-3-methylpiperidine-4-carboxamide]: the IC50 came to 2940 nM and the “EC80 MIN” value is 4%.

Regarding `O=C(Nc1ccc2scnc2c1)[C@H]1CCN(S(=O)(=O)c2ccc(Cl)nc2)C[C@H]1F` (racemic) [Compound 71, cis-(rac)-N-(benzo[d]thiazol-5-yl)-1-((6-chloropyridin-3-yl)sulfonyl)-3-fluoropiperidine-4-carboxamide], the IC50 is over 10000 nM and the “EC80 MIN” value is on record as 20%.

For the molecule `Cc1nn(C)cc1S(=O)(=O)N1CCC(C(=O)Nc2ccc3scnc3c2)C(C)(C)C1` (stereo not shown) [Compound 143, N-(benzo[d]thiazol-5-yl)-1-((1,3-dimethyl-1H-pyrazol-4-yl)sulfonyl)-3,3-dimethylpiperidine-4-carboxamide], the IC50 was over 10000 nM and the “EC80 MIN” value turned out to be 40%.

On to `Cc1nn(C)cc1S(=O)(=O)N1CC[C@H](C(=O)Nc2ccc3scnc3c2)[C@@H](F)C1` (racemic) [Compound 80, trans-(rac)-N-(benzo[d]thiazol-5-yl)-1-((1,3-dimethyl-1H-pyrazol-4-yl)sulfonyl1)-3-fluoropiperidine-4-carboxamide], for which the IC50 amounted to 312 nM and the “EC80 MIN” value turned out to be 3%.

`C[C@H]1CN(S(=O)(=O)c2ccc3c(c2)C(C)(C)CO3)C[C@@H]1C(=O)Nc1ccc2scnc2c1` [Compound 128, (3R,4R)-N-(benzo[d]thiazol-5-yl)-1-((3,3-dimethyl-2,3-dihydrobenzofuran-5-yl)sulfonyl)-4-methylpyrrolidine-3-carboxamide]: the IC50 is over 10000 nM and the “EC80 MIN” value turned out to be 29%.

For the molecule `CC1(C)COc2ccc(S(=O)(=O)N3CC4CC4(C(=O)Nc4ccc5scnc5c4)C3)cc21` (racemic) [Compound 130, (rac)-N-(benzo[d]thiazol-5-yl)-3-((3,3-dimethyl-2,3-dihydrobenzofuran-5-yl)sulfonyl)-3-azabicyclo[3.1.0)hexane-1-carboxamide], the IC50 was over 10000 nM and the “EC80 MIN” value worked out at 62%.

For `O=C(Nc1ccc2scnc2c1)C1CCN(S(=O)(=O)c2ccc3ncsc3c2)CC1` [Compound 3, N-(benzo[d]thiazol-5-yl)-1-(benzo[d]thiazol-6-ylsulfonyl)piperidine-4-carboxamide], the IC50 worked out at 670 nM and the “EC80 MIN” value is reported as 5%.

For `O=C(Nc1cnc2[nH]ccc2c1)C1CCN(S(=O)(=O)c2ccc3c(c2)CCO3)CC1` [Compound 90, 1-((2,3-dihydrobenzofuran-5-yl)sulfonyl)-N-(1H-pyrrolo[2,3-b]pyridin-5-yl)piperidine-4-carboxamide], the half-inhibitory concentration (IC50) is over 10000 nM and the “EC80 MIN” value was determined as 69%.

Consider `Cn1cnc2cc(NC(=O)C3CCN(S(=O)(=O)c4ccc5c(c4)CCO5)CC3)ccc21` [Compound 110, 1-((2,3-dihydrobenzofuran-5-yl)sulfonyl)-N-(1-methyl-1H-benzo[d]imidazol-5-yl)piperidine-4-carboxamide], for which the 50% inhibitory concentration (IC50) was over 10000 nM and the “EC80 MIN” value came out at 53%.

Turning to `C[C@@H]1C[C@@H](C(=O)Nc2ccc3scnc3c2)CCN1S(=O)(=O)c1ccc2c(c1)CCO2` (racemic) [Compound 122, trans-(rac)-N-(benzo[d]thiazol-5-yl)-1-((2.3-dihydrobenzofuran-5-yl)sulfonyl)-2-methylpiperidine-4-carboxamide], the IC50 was found to be 94 nM and the “EC80 MIN” value was determined as 3%.

`O=C(Nc1ccc2scnc2c1)[C@H]1CCN(S(=O)(=O)c2cccc3nsnc23)C[C@H]1F` (racemic) [Compound 75, cis-(rac)-1-(benzo[c][1,2,5]thiadiazol-4-ylsulfonyl)-N-(benzo[d]thiazol-5-yl)-3-fluoropiperidine-4-carboxamide]: the 50% inhibitory concentration (IC50) is 4260 nM and the “EC80 MIN” value was determined as 18%.

With `C[C@H]1CN(S(=O)(=O)c2ccc3c(c2)CCO3)CC[C@@H]1C(=O)Nc1ccc2scnc2c1` (racemic) [Compound 116, trans-(rac)-N-(benzo[d]thiazol-5-yl)-1-((2,3-dihydrobenzofuran-5-yl)sulfonyl)-3-methylpiperidine-4-carboxamide], the 50% inhibitory concentration (IC50) came out at 1540 nM and the “EC80 MIN” value turned out to be 3%.

Regarding `CC1(C)CN(S(=O)(=O)c2cc3c(cc2F)OCC3)CCC1C(=O)Nc1ccc2scnc2c1` (stereo not shown) [Compound 144, N-(benzo[d]thiazol-5-yl)-1-((6-fluoro-2,3-dihydrobenzofuran-5-yl)sulfonyl)-3,3-dimethylpiperidine-4-carboxamide], the IC50 is over 10000 nM and the “EC80 MIN” value is 25%.
